{
  "source": "patent US20250144230A1",
  "about": "“LINKERS FOR USE IN ANTIBODY DRUG CONJUGATES” (Orum Therapeutics, Inc., priority 2021, published 2025)",
  "molecules": {"B1": {"name": "CD79b-A antibody (antibody, V domains shown)", "VH": "EVQLVESGGGLVQPGGSLRLSCAASGYTFSSYWIEWVRQAPGKGLEWIGEILPGGGDTNYNEIFKGRATFSADTSKNTAYLQMNSLRAEDTAVYYCTRRVPIRLDYWGQGTLVTVSS", "VL": "DIQLTQSPSSLSASVGDRVTITCKASQSVDYEGDSFLNWYQQKPGKAPKLLIYAASNLESGVPSRFSGSGSGTDFTLTISSLQPEDFATYYCQQSNEDPLTFGQGTKVEIK", "notes": "also called Polatuzumab"}},
  "key": {"[1]": {"target": "T1, CD79b (Homo sapiens, UniProt P40259)", "T1 construct": "endogenous in cells; host or cells: Ramos", "T1 sequence (P40259 29-229)": "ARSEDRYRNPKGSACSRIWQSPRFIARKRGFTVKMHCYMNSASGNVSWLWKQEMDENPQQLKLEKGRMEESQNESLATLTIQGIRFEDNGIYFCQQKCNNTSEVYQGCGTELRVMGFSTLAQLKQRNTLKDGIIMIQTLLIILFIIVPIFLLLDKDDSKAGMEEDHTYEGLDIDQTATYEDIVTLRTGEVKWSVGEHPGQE", "T1 sequence (P11912 33-226 partner)": "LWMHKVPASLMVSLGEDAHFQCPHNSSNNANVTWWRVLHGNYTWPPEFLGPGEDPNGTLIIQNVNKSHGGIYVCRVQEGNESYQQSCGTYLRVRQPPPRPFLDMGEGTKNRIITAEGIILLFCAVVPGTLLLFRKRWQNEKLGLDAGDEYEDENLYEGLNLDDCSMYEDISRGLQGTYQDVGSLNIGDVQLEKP", "experiment": "Binding of conjugate and parent antibody to cancer cells (flow cytometry), CD79b / Ramos", "conditions": "1 hour at 4° C.; conjugate at DARs 2.0, 3.2 and 4.6"}, "[2]": {"target": "T2, BRD4 (Homo sapiens, UniProt O60885)", "T2 construct": "endogenous in cells; host or cells: MV4-11", "experiment": "In vitro BRD4 protein degradation assay (Western blot)", "assay_type": "cell-based", "conditions": "10 nM, MV4-11 cells, overnight", "experimental": "The ability of the claimed conjugates to degrade BRD4 was measured using an in vitro degradation assay. MV4-11 cells were incubated with test article overnight. Protein was loaded to 4-12% NuPAGE Bis-Tris gel. Western blot with rabbit anti-BRD4 Ab (Cell Signaling #13440) was performed at 1:1,000 dilution and re-blotting with β-actin HRP (Cell Signaling #5125) was performed at 1:1,000. The degradation activity of the gemtuzumab conjugate Compound (XL) and the unconjuaged BRD4 degrader small molecule Compound 40-3 are shown in FIG. 14."}, "[3]": {"test_system": "MV-4-11 cells", "experiment": "In vitro MV-4-11 antiproliferation assay (alamarBlue)", "assay_type": "cell-based, human", "conditions": "4 days, test article alone", "experimental": "MV-4-11 cells were exposed to varying concentrations of conjugates or antibodies for 4 days with/without 1 μM of the blocking antibody Gemtuzumab or Trastuzumab. Viability of the cells was determined by alamarBlue. The antiproliferative activity of the gemtuzumab conjugate of Compound (XL) and the unconjuaged BRD4 degrader small molecule Compound 40-3 are showin in FIG. 13. […] The antibodies alone were not active up to […]."}, "[4]": {"test_system": "MV-4-11 human acute myeloid leukemia cells", "experiment": "In vivo MV-4-11 subcutaneous myeloid leukemia tumor model", "parameters": "species or system Athymic Nude mice", "experimental": "Subcutaneous tumor model—MV-4-11 human acute myeloid leukemia cells (1×10^7 cells in 0.1 mL) were subcutaneously inoculated into the right flank of female Athymic Nude mice. Mice were treated with each test article when the tumor size reached 100-150 mm^3. 10 mg/kg of CD33-D antibody-Compound (XL) conjugate (in 20 mM succinate, 8% sucrose, 0.01% Tween-20 pH 5.5) was delivered by intravenous administration (IV) once a week for 2 weeks. 0.4 mg/kg of Compound (XL) (in 5% NMP, 45% PEG300, 20 mM NaPi pH 6.5) and 10 mg/kg of ARV-825 (as described in Liu, et al. Chemistry & Biology 2015, volume 22, pages 755-763) in 1.5 mg/mL, 5% Kolliphor, HS15 WFI Buffer was treated by intraperitoneal administration (IP) once a day for 14 days. Tumor size and mouse body weight were measured twice per week. Subcutaneous tumor volume (mm^3) was calculated with the following formula: (a×b^2/2) where ‘b’ is the smallest diameter and ‘a’ is the largest diameter. The study endpoint is that individual mice were euthanized following respective tumor volume ≥1,000 mm^3 or day 60, whichever came first."}, "[5]": {"target": "T3, CD79b (UniProt P40259 29-229, limits assumed)", "T3 construct": "whole, on cells; Endogenous antigen on the cell line", "T3 sequence (looked up)": "T1 sequence (P40259 29-229)", "experiment": "flow cytometry binding to Ramos cells (procedure of Example 10)"}},
  "data": [
    {"molecule": "Synagis N297A: non-binding control antibody", "values": [
      {"measurement": "CD79b binding on Ramos cells by flow cytometry (in words)", "setting": "[1]", "value": "relatively negligible signal intensity"}
    ]},
    {"molecule": "Cn1cc(-c2cc(NC(=O)CCCCC(=O)NCCCCNc3cccc4c3C(=O)N(C3CCC(=O)NC3=O)C4=O)ccc2Oc2ccc(F)cc2F)c2cc[nH]c2c1=O", "note": "(stereo not drawn) [Compound 40-3, N′-[4-(2,4-difluorophenoxy)-3-{6-methyl-7-oxo-1H-pyrrolo[2,3-c]pyridin-4-yl}phenyl]-N-(4-{[2-(2,6-dioxopiperidin-3-yl)-1,3-dioxoisoindol-4-yl]amino}butyl)hexanediamide, reference compound]", "values": [
      {"measurement": "reduction in BRD4 protein band intensity", "setting": "[2]", "value": "> 90", "unit": "%"},
      {"measurement": "antiproliferative activity against MV-4-11 cells (in words)", "setting": "[3]", "value": "highly active"},
      {"measurement": "effect on MV-4-11 tumor growth", "setting": "[4]; 0.4 mg/kg IP once a day for 14 days (equivalent to conjugated payload dose)", "value": "inactive"}
    ]},
    {"molecule": "Cc1sc2c(c1C)C(c1ccc(Cl)cc1)=N[C@@H](CC(=O)Nc1ccc(OCCOCCOCCOCCNc3cccc4c3C(=O)N(C3CCC(=O)NC3=O)C4=O)cc1)c1nnc(C)n1-2", "note": "(stereo partly drawn) [ARV-825]", "values": [
      {"measurement": "effect on MV-4-11 tumor growth", "setting": "[4]; 10 mg/kg IP once a day for 14 days", "value": "inactive"}
    ]},
    {"molecule": "B1", "values": [
      {"measurement": "EC50", "setting": "[5]", "value": 0.74, "unit": "nM"}
    ]}
  ]
}
